From US20170189465A1, “Anti Hallucination Drug” (Kracie Pharma, Ltd., priority 2014, published 2017)

Columns and labels:
Assay type in all cases: in vivo
[1] = test system: hallucinogen-induced head-twitching response in mice; test: DOI-induced head-twitching response in mice after oral administration once a day for 14 days; details: oral once a day for 14 days, DOI 1 mg/kg i.p.
Experimental: (§1) Four-week-old ICR male mice (17-19 g) were purchased from Japan SLC, Inc. and subjected to the experiment after an acclimatization period of a week. The animals were kept at a room temperature of 23±2° C. at a humidity of 55±10% in a 12-hour cycle of turning on the light at 8:00 and turning off the light at 20:00. The experimental animals were allowed to drink water and eat freely during the period of the experiment.
(§2) In a physiological saline solution, (+/−) 2,5-dimethoxy-4-iodoamphetamine (DOI: sigma Lot 0.012M4812V), which is a hallucinogen, was dissolved. Immediately after intraperitoneally injecting the solution to the mice at 1 mg/kg, the mice were moved to a breeding cage without a floor mat. After five minutes, the numbers of head-twitches of the mice (used as an indicator of a hallucinatory symptom) were counted for five minutes (Egashira et al., Repeated administration of Yokukansan inhibits DOI-induced head-twitch response and decreases expression of 5-hydroxytryptamine (5-HT) 2A receptors in the prefrontal cortex., Prog Neuropsychopharmacol Biol Psychiatry., 32, 1516-1520, 2008). In this regard, to exclude the influence of external noise or the like on the behavior of the mice, the head-twitches were counted in a soundproof chamber.
Similar ICR male mice to those used in Test 1 were randomly divided into eight groups including a normal group, a control group and six test groups. A 0.5% CMC-Na solution was orally administered to the normal group and the control group once a day for 14 days, and the atractylodes rhizome extract at different doses (20, 100 and 500 mg/kg) and the atractylodes lancea rhizome extract at different doses (20, 100 and 500 mg/kg), which were each prepared using a 0.5% CMC-Na solution, were orally administered to the six test groups once a day for 14 days. One hour after the completion of the final oral administration, 1 mg/kg of DOI was intraperitoneally injected to the mice of the control group and the test groups. Then, the head-twitches of the mice were counted in a similar manner as in Test 1. The results of the measurement were tested by the Dunnett's test using one-way analysis of variance for the comparison between multiple groups. Here, when p<0.05, it was determined that the result attained statistical significance.
The anti-hallucination actions of atractylenolide III and β-eudesmol were examined by the same method as that of Test 2 except for the points which are especially specified. In this test, atractylenolide III purified in Example 1 and commercial β-eudesmol (Lot. WEG2032, Wako Pure Chemical Industries, Ltd.) were dissolved in corn oil and used. The doses were set based on the average amounts of the compounds contained in the crude drugs and on the doses used in Test 2. Specifically, the doses of atractylenolide III were set at 0.03, 0.15 and 0.7 mg/kg, and the doses of β-eudesmol were set at 0.4, 2.0 and 10 mg/kg.
The anti-hallucination actions of atractylone and atractylenolide II were examined by the same method as that of Test 2 except for the points which are especially specified. In this test, atractylone and atractylenolide II purified in Example 1 were dissolved in corn oil and used. The doses of atractylone were set at 0.36, 1.8 and 9.0 mg/kg, and the doses of atractylenolide II were set at 0.03, 0.15 and 0.75 mg/kg.
The anti-hallucination action of atractylenolide I was examined by the same method as that of Test 2 except for the points which are especially specified. In this test, atractylenolide I purified in Example 1 was dissolved in corn oil and used. The doses of atractylenolide I were set at 0.03, 0.15 and 0.75 mg/kg.

head-twitches of mice = test: Production of hallucination model mouse with DOI; details: 1 mg/kg intraperitoneally, counted for five minutes after five minutes
Experimental: as §1, §2

[2] = test system: hallucinogen-induced head-twitching response in mice; test: DOI-induced head-twitching response in mice after single application (one oral administration); details: single oral application, 0.03, 0.15 and 0.75 mg/kg, DOI i.p. after one hour, FIG. 7
Experimental: as §2
Similar ICR male mice to those used in Test 1 were randomly divided into eight groups including a normal group, a control group and six test groups. A 0.5% CMC-Na solution was […], and the atractylodes rhizome extract at different doses ([…]) and the atractylodes lancea rhizome extract at different doses ([…]), which were each prepared using a 0.5% CMC-Na solution, […] […] Then, the head-twitches of the mice were counted in a similar manner as in Test 1. […] Here, when p<0.05, it was determined that the result attained statistical significance. […]

With `C=C1CCC[C@]2(C)C=C3OC(=O)C(C)=C3C[C@@H]12` [atractylenolide I] the “number of head-twitches as compared to the control group” value (“number … compared to the control group” for short) ([1]; 0.15 mg/kg in corn oil) was “decreased significantly” and the “number … compared to the control group” value ([1]; 0.75 mg/kg in corn oil) was “decreased significantly”.
For `C=C1CCC[C@]2(C)Cc3occ(C)c3C[C@@H]12` [atractylone], the “number … compared to the control group” value ([1]; 9.0 mg/kg in corn oil) was “decreased significantly”.
In the case of atractylenolide II, the “number … compared to the control group” value ([1]; 0.75 mg/kg in corn oil) is reported as “decreased significantly”.
`COc1cc(CC(C)N)c(OC)cc1I` (racemic) [DOI, (+/−) 2,5-dimethoxy-4-iodoamphetamine] was tested, and the “numbers of head-twitches compared with normal mice” value (head-twitches of mice) was “higher”.
For `C=C1CCC[C@]2(C)CC[C@@H](C(C)(C)O)C[C@@H]12` [β-eudesmol], the “number … compared to the control group” value ([1]; 10 mg/kg in corn oil) was “decreased significantly”.
For `C=C1CCC[C@]2(C)C[C@]3(O)OC(=O)C(C)=C3C[C@@H]12` [atractylenolide III], the “number … compared to the control group” value ([1]; 0.15 mg/kg in corn oil) was “decreased significantly”, the “number … compared to the control group” value ([1]; 0.7 mg/kg in corn oil) was “decreased significantly” and the “number of head-twitches versus the control group” value [2] was “no significant difference”.
